According to patent US5364861A, “Optical isomers of 7-[3-(1,1-dialkylmethyl-1-amino-1-pyrrolidinyl]-quinolones and naphthyridones as antibacterial agents” (Warner-Lambert Company, priority 1993, dated 1994):
Converted amounts (≈) assume the structure as drawn. Counter-ions that a name gives are not always drawn. Like-named read-outs stand apart in the source and are kept apart here.

Tests used:
Ent. cloacae MA2646 = assay: in vitro antibacterial activity, microtitration dilution (MIC), Ent. cloacae MA2646; type: cell-based; settings: Enterobacter cloacae, read-out: minimum inhibiting concentration (MIC)
From the text: (§1) The in vitro antibacterial activity is obtained when tested by the microtitration dilution method as described in Heifetz, et al., Antimicr. Agents & Chemother. 1974;6:124, which is incorporated herein by reference.
(§2) By use of the above methods, the following minimum inhibiting concentration values (MICs in μg/ml), PD50 's in mg/kg, no effect phototoxicity dose in mg/kg and the cytotoxicity IC50 in μg/mL were obtained for representative enantiomers of the invention and compounds of the prior art as shown in the table.

Esch. coli Vogel [1] = assay: in vitro antibacterial activity, microtitration dilution (MIC), Esch. coli Vogel; type: cell-based; settings: Escherichia coli, read-out: minimum inhibiting concentration (MIC)
From the text: as §1, §2

Klebs. pneumoniae MGH-2 = assay: in vitro antibacterial activity, microtitration dilution (MIC), Klebs. pneumoniae MGH-2; type: cell-based; settings: Klebsiella pneumoniae, MGH2, read-out: minimum inhibiting concentration (MIC)
From the text: as §1, §2

Prot. rettgeri M 1771 = assay: in vitro antibacterial activity, microtitration dilution (MIC), Prot. rettgeri M 1771; type: cell-based; settings: Providencia rettgeri, M1771, read-out: minimum inhibiting concentration (MIC)
From the text: as §1, §2

Pseud. aeruginosa UI-18 = assay: in vitro antibacterial activity, microtitration dilution (MIC), Pseud. aeruginosa UI-18; type: cell-based; settings: Pseudomonas aeruginosa, UI18, read-out: minimum inhibiting concentration (MIC)
From the text: as §1, §2

Staph. aureus H 228 = assay: in vitro antibacterial activity, microtitration dilution (MIC), Staph. aureus H 228; type: cell-based; settings: Staphylococcus aureus, H228, read-out: minimum inhibiting concentration (MIC)
From the text: as §1, §2

Staph. aureus UC-76 = assay: in vitro antibacterial activity, microtitration dilution (MIC), Staph. aureus UC-76; type: cell-based; settings: Staphylococcus aureus, UC76, read-out: minimum inhibiting concentration (MIC)
From the text: as §1, §2

Strep. faecalis MGH-2 = assay: in vitro antibacterial activity, microtitration dilution (MIC), Strep. faecalis MGH-2; type: cell-based; settings: Enterococcus faecalis, MGH2, read-out: minimum inhibiting concentration (MIC)
From the text: as §1, §2

Strep. pneumoniae SV-1 = assay: in vitro antibacterial activity, microtitration dilution (MIC), Strep. pneumoniae SV-1; type: cell-based; settings: Streptococcus pneumoniae, SV1, read-out: minimum inhibiting concentration (MIC)
From the text: as §1, §2

Strep. pyogenes C-203 [2] = assay: in vitro antibacterial activity, microtitration dilution (MIC), Strep. pyogenes C-203; type: cell-based; settings: Streptococcus pyogenes, C203, read-out: minimum inhibiting concentration (MIC)
From the text: as §1, §2

Esch. coli Vogel [3] = assay: median protective dose in mice given lethal systemic infection, Esch. coli; type: in vivo; settings: Escherichia coli, single dose at time of challenge, route not given, read-out: median protective dose (PD50)
Protocol: (§3) The in vivo activity is obtained when the compounds are tested according to the procedure of Miller, et al (Proc. Soc. Exp. Biol. Med. 1944;57:261). The median protective dose (PD50) was determined in mice given lethal systemic infections. Single doses of compound were given at time of challenge.
as §2
(§4) The in vivo data as PD50 's are reported below the line of MICs for the same compound.

Strep. pyogenes C-203 [4] = assay: median protective dose in mice given lethal systemic infection, Strep. pyogenes; type: in vivo; settings: Streptococcus pyogenes, C203, Strep. pyogenes, single dose at time of challenge, route not given, read-out: median protective dose (PD50)
Protocol: as §3, §2, §4

in vivo = assay: in vivo; design: species or system mice; settings: mouse, po
Protocol: The phototoxicity data is obtained using depilated mice. Compound was administered orally each day for four successive days, followed each day by 3 hours of […] radiation. The mice were examined for any positive signs (redness, erythema) relative to control animals. The no effect dose and the 50% effect dose were determined. By use of the above methods, the following minimum inhibiting concentration values (MICs in μg/ml), PD50 's in mg/kg, no effect phototoxicity dose in mg/kg and the cytotoxicity IC50 in μg/mL were obtained for representative enantiomers of the invention and compounds of the prior art as shown in the table.

[5] = cytotoxicity, colony reduction of hamster V-79 cells; type: cell-based; settings: 3 hours treatment, colonies counted after 5 days, read-out: cytotoxicity IC50 (Cytotox)
Protocol: The cytotoxicity data is obtained using hamster V-79 cells. The cells were suspended in tissue culture medium and grown overnight. Cells were treated with drug for 3 hours, washed free of drug and then replated, and the colonies counted after 5 days. The concentration of drug that reduced colonies by 50% relative to control was recorded.
as §2

SMILES	MIC (Ent. cloacae MA2646) [mg/L]	MIC (Esch. coli Vogel [1]) [mg/L]	MIC (Klebs. pneumoniae MGH-2) [mg/L]	MIC (Prot. rettgeri M 1771) [mg/L]	MIC (Pseud. aeruginosa UI-18) [mg/L]	MIC (Staph. aureus H 228) [mg/L]	MIC (Staph. aureus UC-76) [mg/L]	MIC (Strep. faecalis MGH-2) [mg/L]	MIC (Strep. pneumoniae SV-1) [mg/L]	MIC (Strep. pyogenes C-203 [2]) [mg/L]	ED50 (Esch. coli Vogel [3]; first line below the MICs) [mg/kg]	ED50 (Esch. coli Vogel [3]; second line below the MICs) [mg/kg]	ED50 (Strep. pyogenes C-203 [4]; first line below the MICs) [mg/kg]	ED50 (Strep. pyogenes C-203 [4]; second line below the MICs) [mg/kg]	NOAEL (in vivo) [mg/kg]	CC50 at 3 h [5] [mg/L]
CC(C)(N)[C@H]1CCN(c2nc3c(cc2F)c(=O)c(C(=O)O)cn3C2CC2)C1.Cl [Example 3, (S)-7-[3-(1-Amino-1-methylethyl)-1-pyrrolidinyl]-1-cyclopropyl-6-fluoro-1,4-dihydro-4-oxo-1,8-naphthyridine-3-carboxylic acid, monohydrochloride]	0.2	0.2	0.4	0.8	3.1	0.1	0.025	0.1	0.05	0.1	10	3	32	7	30	58
CC(C)(N)[C@H]1CCN(c2c(F)cc3c(=O)c(C(=O)O)cn(C4CC4)c3c2Cl)C1 [Example 1, (S)-7-[3-(1-Amino-1-methylethyl)-1-pyrrolidinyl]-8-chloro-1-cyclopropyl-6-fluoro-1,4-dihydro-4-oxo-3-quinolinecarboxylic acid, monohydrochloride]	0.1	0.1	0.2	0.4	1.6	0.025	0.013	0.05	0.013	0.025	27	4	13	4	–	–
Cc1c(F)c(N2CC[C@H](C(C)(C)N)C2)cc2c1c(=O)c(C(=O)O)cn2-c1ccc(F)cc1F [Example 11, S-7-[3-(1-amino-1-methylethyl)-1-pyrrolidinyl]-1-(2,4-difluorophenyl)-6-fluoro-1,4-dihydro-5-methyl-4-oxo-3-quinolinecarboxylic acid]	0.1 (≈ 0.218 µM)	0.1 (≈ 0.218 µM)	0.2 (≈ 0.435 µM)	0.4 (≈ 0.871 µM)	1.6 (≈ 3.48 µM)	0.025 (≈ 0.0544 µM)	0.013 (≈ 0.0283 µM)	0.1 (≈ 0.218 µM)	0.013 (≈ 0.0283 µM)	0.013 (≈ 0.0283 µM)	–	–	–	–	–	–
Cc1c(F)c(N2CC[C@@H](C(C)(C)N)C2)cc2c1c(=O)c(C(=O)O)cn2-c1ccc(F)cc1F [Example 10, (R)-7-[3-(1-Amino-1-methylethyl)-1-pyrrolidinyl]-1-(2,4-difluorophenyl)-6-fluoro-1,4-dihydro-5-methyl-4-oxo-3-quinolinecarboxylic acid]	0.4 (≈ 0.871 µM)	0.4 (≈ 0.871 µM)	0.8 (≈ 1.74 µM)	1.6 (≈ 3.48 µM)	3.1 (≈ 6.75 µM)	0.1 (≈ 0.218 µM)	0.05 (≈ 0.109 µM)	0.4 (≈ 0.871 µM)	0.4 (≈ 0.871 µM)	0.2 (≈ 0.435 µM)	–	–	–	–	–	–
CC(C)(N)[C@H]1CCN(c2c(F)cc3c(=O)c(C(=O)O)cn(C4CC4)c3c2F)C1 [Example 12, (S)-7-[3-(1-Amino-1-methylethyl)-1-pyrrolidinyl]-1-cyclopropyl-6,8-difluoro-1,4-dihydro-4-oxo-3-quinolinecarboxylic acid]	0.2 (≈ 0.511 µM)	0.1 (≈ 0.255 µM)	0.2 (≈ 0.511 µM)	0.4 (≈ 1.02 µM)	1.6 (≈ 4.09 µM)	0.025 (≈ 0.0639 µM)	≤ 0.003	0.025 (≈ 0.0639 µM)	0.006 (≈ 0.0153 µM)	0.006 (≈ 0.0153 µM)	–	–	12	0.6	–	–
COc1c(N2CC[C@H](C(C)(C)N)C2)c(F)cc2c(=O)c(C(=O)O)cn(C3CC3)c12 [Example 8, (S)-7-[3-(1-Amino-1-methylethyl)-1-pyrrolidinyl]-1-cyclopropyl-6-fluoro-1,4-dihydro-8-methoxy-4-oxo-3-quinolinecarboxylic acid]	0.2 (≈ 0.496 µM)	0.2 (≈ 0.496 µM)	0.4 (≈ 0.991 µM)	0.8 (≈ 1.98 µM)	3.1 (≈ 7.68 µM)	0.05 (≈ 0.124 µM)	0.013 (≈ 0.0322 µM)	0.05 (≈ 0.124 µM)	0.025 (≈ 0.062 µM)	0.025 (≈ 0.062 µM)	–	–	–	–	–	–
